In patent EP0150638A1, “Pyrethroid composition for the local treatment of skin diseases” (CENTRE DE RECHERCHE D'APPLICATIONS PHARMACEUTIQUES …, priority 1983, dated 1985):

Experiment: primary cutaneous irritation test
Assay type: in vivo, lapin
Conditions: rabbit; compared with other allethrin isomers, natural pyrethrin, or hydrocarbon-containing compositions
Source text: Le pouvoir irritant des compositions selon l'invention a été étudié chez le lapin, par un test d'irritation cutanée primaire, dont les conditions de réalisation sont définies dans le Journal Officiel de la République Française du 21 avril 1971, complété par celui du 5 juin 1973. Il a été comparé à celui des compositions où des pyréthrines naturelles remplaçaient les pyréthrinoldes de l'invention et à celui de compositions résultant du mélange des pyréthrinoides et d'huile de vaseline ou d'isododécane.

C=CCC1=C(C)[C@@H](OC(=O)[C@@H]2[C@@H](C=C(C)C)C2(C)C)CC1=O [pyréthrinoide de l'exemple 1, d-transchrysanthémate de d-alléthrolone]
pouvoir irritant (comparison in words): beaucoup moins irritant
